The target in this test is recombinant IL4I1 (Homo sapiens (Human), UniProt Q96RQ9). In words: IL4I1 Enzymatic Assay (Amplex Red/HRP coupled fluorescence detection of H2O2). The format is biochemical. The settings on record: 240 min; recombinant IL4I1, four-hour pre-incubation with compound. The gist of the method:
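Recombinant human IL4I1 (1 nM final) pre-incubated 4 h with compound at ambient temperature in 50 mM Hepes pH 7.0, 0.005% Tween20. Started with 1 mM each Phe/Tyr/Trp plus Amplex Red/HRP; H2O2-derived resorufin fluorescence read after 120 min; EC50 from ten-point 1:3 titration, four-parameter fit.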
recombinant IL4I1, sequence (Q96RQ9 22-567): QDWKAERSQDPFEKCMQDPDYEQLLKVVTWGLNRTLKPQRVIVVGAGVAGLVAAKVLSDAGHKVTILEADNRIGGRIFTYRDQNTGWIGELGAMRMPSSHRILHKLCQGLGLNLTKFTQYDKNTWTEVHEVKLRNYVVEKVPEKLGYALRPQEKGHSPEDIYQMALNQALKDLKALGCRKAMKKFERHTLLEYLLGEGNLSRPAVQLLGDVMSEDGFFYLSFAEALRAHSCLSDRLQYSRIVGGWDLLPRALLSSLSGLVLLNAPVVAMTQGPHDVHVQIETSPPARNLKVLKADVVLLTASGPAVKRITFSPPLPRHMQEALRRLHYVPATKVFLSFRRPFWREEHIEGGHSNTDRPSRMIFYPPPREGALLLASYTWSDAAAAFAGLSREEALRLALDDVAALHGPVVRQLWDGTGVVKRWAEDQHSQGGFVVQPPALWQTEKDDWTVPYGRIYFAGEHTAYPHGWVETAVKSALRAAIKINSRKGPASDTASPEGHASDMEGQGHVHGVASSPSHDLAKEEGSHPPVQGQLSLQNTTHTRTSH
With `CC1(n2ccn(Cc3cn(-c4ccccn4)nn3)c(=O)c2=O)CC1` [Example 430, 1-(1-methylcyclopropyl)-4-((1-(pyridin-2-yl)-1H-1,2,3-triazol-4-yl)methyl)-1,4-dihydropyrazine-2,3-dione], the EC50 (usually the midpoint of the concentration-response curve) worked out at 183 nM.

In the case of `N#CC1(n2ccn(Cc3cn(-c4cccnc4)nn3)c(=O)c2=O)CC1` [Example 431, 1-(2,3-dioxo-4-((1-(pyridin-3-yl)-1H-1,2,3-triazol-4-yl)methyl)-3,4-dihydropyrazin-1(2H)-yl)cyclopropane-1-carbonitrile], the EC50 stood at 130 nM.

For `O=C1C(=O)N(C2CCC2)CCN1Cc1noc(-c2ccccn2)c1Br` [Example 432, 1-((4-bromo-5-(pyridin-2-yl)isoxazol-3-yl)methyl)-4-cyclobutylpiperazine-2,3-dione], the 50% effective concentration (EC50) is 17 nM.

On to `O=C1C(=O)N(c2ccccn2)CCN1Cc1ccc(-c2ccccc2)nn1` [Example 433, 1-((6-phenylpyridazin-3-yl)methyl)-4-(pyridin-2-yl)piperazine-2,3-dione], for which the EC50 is 37 nM.

On to `O=C1C(=O)N(C2CC(O)C2)CCN1Cc1ccc(-c2ccccc2F)nn1` (stereo not shown) [Example 434, 1-((6-(2-fluorophenyl)pyridazin-3-yl)methyl)-4-(3-hydroxycyclobutyl)piperazine-2,3-dione], for which the EC50 stood at 71 nM.

`N#Cc1ccccc1-c1nnc(CN2CCN(C34CC(C3)C4)C(=O)C2=O)s1` [Example 436, 2-(5-((4-(bicyclo[1.1.1]pentan-1-yl)-2,3-dioxopiperazin-1-yl)methyl)-1,3,4-thiadiazol-2-yl)benzonitrile]: the EC50 worked out at 20 nM.

In the case of `O=C1C(=O)N(C23CC(C2)C3)CCN1Cc1cn(-c2ccccc2)nn1` [Example 439, 1-(bicyclo[1.1.1]pentan-1-yl)-4-((1-phenyl-1H-1,2,3-triazol-4-yl)methyl)piperazine-2,3-dione], the EC50 stood at 9 nM.

The record behind these values is patent US20240246937A1 (MERCK SHARP & DOHME LLC, priority 2021, published 2024).
